The test system of one series is MRSA ATCC 43300. The series can be described thus: MIC/MBC by broth dilution (CLSI). Format: cell-based, Staphylococcus aureus. Particulars: Staphylococcus aureus; for MBC: MRSA ATCC 43300, 99.9% of the bacteria killed; for MIC: MRSA ATCC 43300, broth dilution, 24 h, 37 °C, read-out: MIC. On the procedure:
(§1) The in vitro antimicrobial activity of the pleuromutilin derivatives was assessed against MRSA ATCC 43300, S. aureus ATCC 29213, S. aureus 144 and S. aureus AD3 according to the Clinical and Laboratory Standards Institute (CLSI). Tiamulin was used as a positive control drug. The results were summarized as the minimum inhibitory concentration (MIC) and the minimum bactericidal concentration (MBC) in Table 1 and Table 2. In addition, MIC results for the pleuromutilin derivatives against four Gram-negative bacteria are supplied in Tables S2 and S3.
(§2) The MIC and MBC values of the synthesized novel pleuromutilin derivatives against MRSA ATCC 43300, S. aureus ATCC 29213, S. aureus 144 and S. aureus AD3 were measured. Tiamulin was used as a positive control drug. The MIC and MBC values were manipulated by broth dilution according to the Clinical and Laboratory Standards (CLSI). Each compound to be measured was dissolved in a solution of 95% deionized water, 2.5% dimethyl sulfoxide (DMSO) and 2.5% Tween-80 with a concentration of 1280 µg/mL. Subsequently, serial twofold dilutions were made in a concentration range from 64 µg/mL to 0.0625 µg/mL. The working bacterial suspension was inoculated into each well, which provided the final inoculum density of 5 × 10^5 CFU/mL. Three parallel experiments were performed for each compound.
(§3) Overall, 25 µL of the bacterial solution from the wells with no obvious bacterial growth was inoculated on MH agar plates. Then, the inoculated MH agar plates were further cultured at 37 °C for 24 h.

Another series concerns S. aureus 144. The series can be described thus: MIC/MBC by broth dilution (CLSI). Format: cell-based. Conditions: Staphylococcus aureus; S. aureus 144 (clinical strain). On the procedure: as §1, §2, §3
The next series has as its system S. aureus ATCC 29213. The series can be described thus: MIC/MBC by broth dilution (CLSI). Format: cell-based. Conditions: Staphylococcus aureus, ATCC29213; for MBC: S. aureus ATCC 29213; for MIC: S. aureus ATCC 29213, broth dilution, 24 h, 37 °C. As to the method: as §1, §2, §3
In general terms: Dilution methods test growth across graded concentrations, often in twofold steps.

For a further series, the system named is S. aureus AD3. Put plainly: MIC/MBC by broth dilution (CLSI). It is filed as cell-based. Conditions: Staphylococcus aureus, S. aureus AD3 (clinical strain). On the procedure:
as §1, §2, §3

≈ marks a conversion by molar mass, not a printed value. Where only a bound is given, the exact number is not on record here.

Broadly, the MBC is the smallest concentration meeting the test's criterion for killing. Low values mean greater bactericidal potency, high ones weaker bactericidal potency. The MIC is the lowest concentration found to suppress growth. The term melting point denotes the temperature, or range, at which the solid turns liquid.

`C=C[C@]1(C)C[C@@H](OC(=O)CNc2nc(Cl)nc3c2cnn3-c2cccc(C)c2)[C@]2(C)[C@H](C)CC[C@]3(CCC(=O)[C@H]32)[C@@H](C)[C@@H]1O` [Compound 12b, 22-[(6-Chloro-1-(3-methylphenyl)-1H-pyrazolo[3,4-d]pyrimidine-4-yl)amino]-22-deoxypleuromutilin] showed a melting point of 97 to 99 °C. In the series with MRSA ATCC 43300, the MBC came to 32 µg/mL (≈ 51.6 µM) and the MIC is 8 µg/mL (≈ 12.9 µM). In addition, in the series with S. aureus 144, the MBC came out at 32 µg/mL (≈ 51.6 µM) and the MIC is 8 µg/mL (≈ 12.9 µM). In the series with S. aureus ATCC 29213, the MBC was 32 µg/mL (≈ 51.6 µM) and the lowest concentration to inhibit growth (MIC) was 8 µg/mL (≈ 12.9 µM). Besides, in the series on S. aureus AD3, the MBC turned out to be 16 µg/mL (≈ 25.8 µM) and the MIC came out at 4 µg/mL (≈ 6.45 µM).

In the case of `C=C[C@]1(C)C[C@@H](OC(=O)CNc2nc(Cl)nc3c2cnn3-c2ccc(C)cc2)[C@]2(C)[C@H](C)CC[C@]3(CCC(=O)[C@H]32)[C@@H](C)[C@@H]1O` [Compound 13b, 22-[(6-Chloro-1-(4-methylphenyl)-1H-pyrazolo[3,4-d]pyrimidine-4-yl)amino]-22-deoxypleuromutilin], the MBC was 32 µg/mL (≈ 51.6 µM) with MRSA ATCC 43300, greater than 64 µg/mL against S. aureus 144, greater than 64 µg/mL in the series on S. aureus ATCC 29213 and greater than 64 µg/mL against S. aureus AD3. The MIC was 16 µg/mL (≈ 25.8 µM) in the series on MRSA ATCC 43300, 32 µg/mL (≈ 51.6 µM) against S. aureus 144, 32 µg/mL (≈ 51.6 µM) with S. aureus ATCC 29213 and 16 µg/mL (≈ 25.8 µM) against S. aureus AD3.

In turn, `C=C[C@]1(C)C[C@@H](OC(=O)CSc2ccc(Nc3nc(Cl)nc4c3cnn4-c3ccc(C)cc3)cc2)[C@]2(C)[C@H](C)CC[C@]3(CCC(=O)[C@H]32)[C@@H](C)[C@@H]1O` [Compound 13c, 22-[4-(6-Chloro-1-(4-methylphenyl)-1H-pyrazolo[3,4-d]pyrimidine-4-yl)amino-phenylsulfanyl]-22-deoxypleuromutilin] displayed a melting point of 101 to 105 °C. In addition, in the series on MRSA ATCC 43300, the MBC is greater than 64 µg/mL and the MIC was determined as 8 µg/mL (≈ 11 µM). In the series with S. aureus 144, this molecule returned an MBC greater than 64 µg/mL and an MIC of 16 µg/mL (≈ 22 µM). In the series with S. aureus ATCC 29213, this molecule registered an MBC greater than 64 µg/mL and an MIC of 8 µg/mL (≈ 11 µM). In the series on S. aureus AD3 (24 h), this molecule displayed an MBC greater than 64 µg/mL and an MIC of 4 µg/mL (≈ 5.49 µM).

For the molecule `C=C[C@]1(C)C[C@@H](OC(=O)CNc2nc(Cl)nc3c2cnn3-c2ccc(C)c(C)c2)[C@]2(C)[C@H](C)CC[C@]3(CCC(=O)[C@H]32)[C@@H](C)[C@@H]1O` [Compound 14b, 22-[(6-Chloro-1-(3,4-dimethylphenyl)-1H-pyrazolo[3,4-d]pyrimidine-4-yl)amino]-22-deoxypleuromutilin], the melting point fell in the range of 99 to 103 °C. For the same molecule, in the series with MRSA ATCC 43300, the MBC was greater than 64 µg/mL and the MIC was found to be 16 µg/mL (≈ 25.2 µM). In the series with S. aureus 144, this molecule came in with an MBC greater than 64 µg/mL and an MIC of 16 µg/mL (≈ 25.2 µM). In addition, in the series on S. aureus ATCC 29213, the MBC was greater than 64 µg/mL and the MIC is 16 µg/mL (≈ 25.2 µM). In the series on S. aureus AD3, this molecule registered an MBC greater than 64 µg/mL and an MIC of 16 µg/mL (≈ 25.2 µM).

Consider `C=C[C@]1(C)C[C@@H](OC(=O)CSc2ccc(Nc3nc(Cl)nc4c3cnn4-c3ccc(C)c(C)c3)cc2)[C@]2(C)[C@H](C)CC[C@]3(CCC(=O)[C@H]32)[C@@H](C)[C@@H]1O` [Compound 14c, 22-[4-(6-Chloro-1-(3,4-dimethylphenyl)-1H-pyrazolo[3,4-d]pyrimidine-4-yl)amino-Phenylsulfanyl]-22-deoxypleuromutilin], for which the melting point fell in the range of 103 to 105 °C. Further, the MIC in the series on MRSA ATCC 43300 is greater than 64 µg/mL. For the same molecule, in the series on S. aureus 144, the MIC is greater than 64 µg/mL. The same molecule returned an MIC against S. aureus ATCC 29213 greater than 64 µg/mL. In the series with S. aureus AD3, the MIC is greater than 64 µg/mL.

Consider `C=C[C@]1(C)C[C@@H](OC(=O)CNc2nc(Cl)nc3c2cnn3-c2cc(C)cc(C)c2)[C@]2(C)[C@H](C)CC[C@]3(CCC(=O)[C@H]32)[C@@H](C)[C@@H]1O` [Compound 15b, 22-[(6-Chloro-1-(3,5-dimethylphenyl)-1H-pyrazolo[3,4-d]pyrimidine-4-yl)amino]-22-deoxypleuromutilin], for which the melting point is 95 to 100 °C. Further, the MIC in the series with MRSA ATCC 43300 was greater than 64 µg/mL. The molecule further yielded an MIC in the series on S. aureus 144 greater than 64 µg/mL. The molecule also yielded an MIC against S. aureus ATCC 29213 greater than 64 µg/mL. Also, the MIC against S. aureus AD3 is greater than 64 µg/mL.

As for `C=C[C@]1(C)C[C@@H](OC(=O)CSc2ccc(Nc3nc(Cl)nc4c3cnn4-c3cc(C)cc(C)c3)cc2)[C@]2(C)[C@H](C)CC[C@]3(CCC(=O)[C@H]32)[C@@H](C)[C@@H]1O` [Compound 15c, 22-[4-(6-Chloro-1-(3,5-dimethylphenyl)-1H-pyrazolo[3,4-d]pyrimidine-4-yl)amino-Phenylsulfanyl]-22-deoxypleuromutilin], the melting point was 92 to 95 °C. Moreover, the MIC with MRSA ATCC 43300 is greater than 64 µg/mL. This molecule returned an MIC against S. aureus 144 greater than 64 µg/mL. This molecule registered an MIC against S. aureus ATCC 29213 greater than 64 µg/mL. The molecule further came in with an MIC against S. aureus AD3 greater than 64 µg/mL.

`C=C[C@]1(C)C[C@@H](OC(=O)CNc2nc(Cl)nc3c2cnn3-c2ccc(CC)cc2)[C@]2(C)[C@H](C)CC[C@]3(CCC(=O)[C@H]32)[C@@H](C)[C@@H]1O` [Compound 16b, 22-[(6-Chloro-1-(4-ethylphenyl)-1H-pyrazolo[3,4-d]pyrimidine-4-yl)amino]-22-deoxypleuromutilin] yielded a melting point of 101 to 103 °C. In the series on MRSA ATCC 43300, the MBC was greater than 64 µg/mL and the MIC is 32 µg/mL (≈ 50.5 µM). Further, in the series with S. aureus 144, the minimum bactericidal concentration (MBC) is greater than 64 µg/mL and the lowest concentration to inhibit growth (MIC) was 32 µg/mL (≈ 50.5 µM). In the series on S. aureus ATCC 29213, the MBC is greater than 64 µg/mL and the MIC was 32 µg/mL (≈ 50.5 µM). In the series on S. aureus AD3, this molecule yielded an MBC greater than 64 µg/mL and an MIC of 16 µg/mL (≈ 25.2 µM).

The molecule `C=C[C@]1(C)C[C@@H](OC(=O)CSc2ccc(Nc3nc(Cl)nc4c3cnn4-c3ccc(CC)cc3)cc2)[C@]2(C)[C@H](C)CC[C@]3(CCC(=O)[C@H]32)[C@@H](C)[C@@H]1O` [Compound 16c, 22-[4-(6-Chloro-1-(4-ethylphenyl)-1H-pyrazolo[3,4-d]pyrimidine-4-yl)amino-Phenylsulfanyl]-22-deoxypleuromutilin] returned a melting point of 97 to 99 °C. In addition, the MIC in the series with MRSA ATCC 43300 is greater than 64 µg/mL. Also, the MIC in the series with S. aureus 144 is greater than 64 µg/mL. In the series with S. aureus ATCC 29213, this molecule displayed an MIC greater than 64 µg/mL. The same molecule had an MIC against S. aureus AD3 greater than 64 µg/mL.

For `C=C[C@]1(C)C[C@@H](OC(=O)CNc2nc(Cl)nc3c2cnn3-c2cccc(OC)c2)[C@]2(C)[C@H](C)CC[C@]3(CCC(=O)[C@H]32)[C@@H](C)[C@@H]1O` [Compound 17b, 22-[(6-Chloro-1-(3-methoxyphenyl)-1H-pyrazolo[3,4-d]pyrimidine-4-yl)amino]-22-deoxypleuromutilin], the melting point lay in the range of 99 to 104 °C. In addition, in the series on MRSA ATCC 43300, the minimum inhibitory concentration (MIC) is greater than 64 µg/mL. Moreover, the MIC in the series with S. aureus 144 was greater than 64 µg/mL. The molecule also came in with an MIC against S. aureus ATCC 29213 greater than 64 µg/mL. In the series on S. aureus AD3, this molecule returned an MIC greater than 64 µg/mL.

For `C=C[C@]1(C)C[C@@H](OC(=O)CNc2nc(Cl)nc3c2cnn3-c2ccc(OC(F)(F)F)cc2)[C@]2(C)[C@H](C)CC[C@]3(CCC(=O)[C@H]32)[C@@H](C)[C@@H]1O` [Compound 23b, 22-[(6-Chloro-1-(4-(trifluoromethoxy)Phenyl)-1H-pyrazolo[3,4-d]pyrimidine-4-yl)amino]-22-deoxypleuromutilin], the MIC with MRSA ATCC 43300, in the series with S. aureus 144, with S. aureus ATCC 29213 and against S. aureus AD3 was greater than 64 µg/mL each time.

For `C=CC1(C)CC(OC(=O)CSc2ccc(N)cc2)C2(C)C(C)CCC3(CCC(=O)C32)C(C)C1O` (centres unmarked) [Compound 32, 22-(4-Amino-phenylsulfanyl)deoxypleuromutilin], the MIC came out at 0.0015 µg/mL (≈ 0.00309 µM) in the series on MRSA ATCC 43300, 0.003 µg/mL (≈ 0.00618 µM) in the series with S. aureus 144, 0.0015 µg/mL (≈ 0.00309 µM) in the series on S. aureus ATCC 29213 and 0.0015 µg/mL (≈ 0.00309 µM) in the series on S. aureus AD3 (24 h).

(Values after PMC10180054, “Design, Synthesis and Biological Evaluation of Novel Pleuromutilin Derivatives Containing 6-Chloro-1-R-1H-pyrazolo[3,4-d]pyrimidine-4-amino Side Chain” (Molecules, 2023).)
